Test results taken from patent publication US20090048301A1 (IMCLONE SYSTEMS INCORPORATED, priority 2003, published 2009).

Each compound was assayed on bovine tubulin (assay: In vitro tubulin polymerization assay (turbidity at 340 nm)). Settings: 10 μM compound, 30 minute data point, vs 1% DMSO control.
Assay type: biochemical
Method: Briefly, tubulin polymerization is a kinetic process that is temperature-dependent and requires GTP and was performed as follows. Soluble tubulin dimers polymerize into microtubules upon warming, and polymerization in vitro correlates with an increase in turbidity (measured at 340 nm). Lyophilized bovine tubulin (HTS Tubulin—97% tubulin, <3% MAPs—Cytoskeleton Inc.) was ressuspended in G-PEM buffer (80 mM PIPES pH 7, 1 mM EGTA, 1 mM MgCl2, 1 mM GTP, 5% glycerol) to a final concentration of 3 mg/ml and kept at 4° C. Compounds in 100× stock solutions in DMSO were dotted to pre-warmed 96-well plates (Corning Costar 3696), the plates were transferred to a 37° C. plate reader (SPECTRAmax Plus, Molecular Devices), cold tubulin was added to the wells, and the plates were shaken for mixing. The absorbance at 340 nm was determined at one minute intervals for 30 minutes. Kinetic curves with 30 points each were collected for each compound, and the dynamic range was between 0 and 0.4 OD units. The percentage inhibition values were calculated using the 30 minute data point and based on control samples (treated with 1% DMSO only). The assay is a modified version of the HTS kit sold by Cytoskeleton (1830 S. Acoma St., Denver, Colo.), adapted to maximize throughput and reduce time, without reduction in dynamic range or sensitivity, while retaining the ability to detect compounds that inhibit or enhance tubulin polymerization.
Tubulin polymerization is a kinetic process that is temperature-dependent and requires GTP. Soluble tubulin dimers polymerize into microtubules upon warming, and polymerization in vitro correlates with an increase in turbidity (measured at 340 nm). Liophilized bovine tubulin (HTS Tubulin—97% tubulin, <3% MAPs—Cytoskeleton Inc.) was ressuspended in G-PEM buffer (80 mM PIPES pH 7, 1 mM EGTA, 1 mM MgCl2, 1 mM GTP, 5% glycerol) to a final concentration of 3 mg/ml and kept at 4° C. Compounds in 100× stock solutions in DMSO were dotted to pre-warmed 96-well plates (Corning Costar 3696), the plates were immediately transferred to a 37° C. plate reader (SPECTRAmax Plus, Molecular Devices), cold tubulin was added to the wells, plates were shaken for mixing, and absorbance at 340 nm was read every minute for 30 minutes. Kinetic curves with 30 points each were collected for each compound, and the dynamic range was between 0 and 0.4 OD units. Percentage inhibition values were calculated using the 30 minute data point, based on control samples (treated with 1% DMSO only). This assay is a modified version of the HTS kit sold by Cytoskeleton, adapted to maximize throughput and reduce time, without reduction in dynamic range or sensitivity, while retaining the ability to detect compounds that inhibit or enhance tubulin polymerization.

Structure (SMILES) | Tubulin Assay: percent inhibition at 10 μM based on 30 minute data
COc1cccc(Nc2nc(-c3cccnc3Nc3cc(OC)cc(OC)c3)nn2C)c1 [Compound 66, (3,5-Dimethoxy-phenyl)-{3-[5-(3-methoxy-phenylamino)-1-methyl-1H-[1,2,4]triazol-3-yl]-pyridin-2-yl}-amine] | 73%
COc1cc(Nc2ncccc2-c2nc(Nc3ccc4c(c3)OCCO4)n(C)n2)cc(OC)c1 [Compound 67, {3-[5-(2,3-Dihydro-benzo[1,4]dioxin-6-ylamino)-1-methyl-1H-[1,2,4]triazol-3-yl]-pyridin-2-yl}-(3,5-dimethoxy-phenyl)-amine] | 76%
Cn1nc(-c2cccnc2NCc2ccncc2)nc1Nc1ccc2c(c1)OCCO2 [Compound 68, {3-[5-(2,3-Dihydro-benzo[1,4]dioxin-6-ylamino)-1-methyl-1H-[1,2,4]triazol-3-yl]-pyridin-2-yl}-pyridin-4-ylmethyl-amine] | 58%
COc1cccc(Nc2nc(-c3cccnc3NCc3ccncc3)nn2C)c1 [Compound 69, {3-[5-(3-Methoxy-phenylamino)-1-methyl-1H-[1,2,4]triazol-3-yl]-pyridin-2-yl}-pyridin-4-ylmethyl-amine] | 29%
Cn1nc(-c2cccnc2NCc2ccncc2)nc1Nc1ccc2c(c1)OCO2 [Compound 70, {3-[5-(Benzo[1,3]dioxol-5-ylamino)-1-methyl-1H-[1,2,4]triazol-3-yl]-pyridin-2-yl}-pyridin-4-ylmethyl-amine] | 32%
FC(F)(F)c1cccc(-c2nnc(-c3cccnc3NCc3ccncc3)[nH]2)c1 [Compound 76, Pyridin-4-ylmethyl-{3-[5-(3-trifluoromethyl-phenyl)-4H-[1,2,4]thiazol-3-yl]-pyridin-2-yl}-amine] | 21%
Fc1ccc(-c2nnc(-c3cccnc3NCc3ccc4c(c3)OCO4)[nH]2)cc1Cl [Compound 81, Benzo[1,3]dioxol-5-ylmethyl-{3-[5-(3-chloro-4-fluoro-phenyl)-4H-[1,2,4]triazol-3-yl]-pyridin-2-yl}-amine] | 20%
FC(F)(F)c1cccc(-c2nnc(-c3cccnc3NCc3ccc4c(c3)OCO4)[nH]2)c1 [Compound 83, Benzo[1,3]dioxol-5-ylmethyl-{3-[5-(3-trifluoromethyl-phenyl)-4H-[1,2,4]triazol-3-yl]-pyridin-2-yl}-amine] | 25%
COc1cccc(-c2nnc(-c3cccnc3NCCc3c[nH]cn3)[nH]2)c1 [Compound 90, [2-(1H-Imidazol-4-yl)-ethyl]-{3-[5-(3-methoxy-phenyl)-4H-[1,2,4]triazol-3-yl]-pyridin-2-yl}-amine] | 25%
CS(=O)(=O)c1ccc(-c2nnc(-c3cccnc3NCCc3c[nH]cn3)[nH]2)cc1 [Compound 91, [2-(1H-Imidazol-4-yl)-ethyl]-{3-[5-(4-methanesulfonyl-phenyl)-4H-[1,2,4]triazol-3-yl]-pyridin-2-yl}-amine] | 29%
COc1cc(Nc2ncccc2-c2nnc(-c3ccc4c(c3)OCO4)[nH]2)cc(OC)c1 [Compound 93, [3-(5-Benzo[1,3]dioxol-5-yl-4H-[1,2,4]triazol-3-yl)-pyridin-2-yl]-(3,5-dimethoxy-phenyl)-amine] | 28%
COc1cccc(-c2nnc(-c3cccnc3NCc3ccncc3)[nH]2)c1 [Compound 94, {3-[5-(3-Methoxy-phenyl)-4H-[1,2,4]triazol-3-yl]-pyridin-2-yl}-pyridin-4-ylmethyl-amine] | 43%
COc1cccc(-c2nnc(-c3cccnc3NCc3ccco3)[nH]2)c1 [Compound 95, Furan-2-ylmethyl-{3-[5-(3-methoxy-phenyl)-4H-[1,2,4]triazol-3-yl]-pyridin-2-yl}-amine] | 41%
FC(F)(F)c1cccc(-c2nnc(-c3cccnc3NCc3ccco3)[nH]2)c1 [Compound 96, Furan-2-ylmethyl-{3-[5-(3-trifluoromethyl-phenyl)-4H-[1,2,4]triazol-3-yl]-pyridin-2-yl}-amine] | 20%
CS(=O)(=O)c1ccc(-c2nnc(-c3cccnc3NCCc3cccnc3)[nH]2)cc1 [Compound 99, {3-[5-(4-Methanesulfonyl-phenyl)-4H-[1,2,4]triazol-3-yl]-pyridin-2-yl}-(2-pyridin-3-yl-ethyl)-amine] | 47%
c1cnc(NCc2ccc3c(c2)OCCO3)c(-c2nnc(-c3ccc4c(c3)OCO4)[nH]2)c1 [Compound 104, [3-(5-Benzo[1,3]dioxol-5-yl-4H-[1,2,4]triazol-3-yl)-pyridin-2-yl]-(2,3-dihydro-benzo[1,4]dioxin-6-ylmethyl)-amine] | 21%
CS(=O)(=O)c1ccc(-c2nnc(-c3cccnc3NCc3cccc(F)c3)[nH]2)cc1 [Compound 107, (3-Fluoro-benzyl)-{3-[5-(4-methanesulfonyl-phenyl)-4H-[1,2,4]triazol-3-yl]-pyridin-2-yl}-amine] | 37%
COc1cccc(-c2nnc(-c3cccnc3OCc3ccc4c(c3)OCO4)[nH]2)c1 [Compound 110, 2-(Benzo[1,3]dioxol-5-ylmethoxy)-3-[5-(3-methoxy-phenyl)-4H-[1,2,4]triazol-3-yl]-pyridine] | 20%
COc1cccc(CNc2nnc(-c3ccccc3NCc3ccncc3)[nH]2)c1 [Compound 112, (3-Methoxy-benzyl)-(5-{2-[(pyridin-4-ylmethyl)-amino]-phenyl}-4H-[1,2,4]triazol-3-yl)-amine] | 49%
COc1ccc(CNc2nnc(-c3ccccc3NCc3ccncc3)[nH]2)cc1 [Compound 113, (4-Methoxy-benzyl)-(5-{2-[(pyridin-4-ylmethyl)-amino]-phenyl}-4H-[1,2,4]triazol-3-yl)-amine] | 24%
COc1ccc(Nc2nnc(-c3ccccc3NCc3ccncc3)[nH]2)c(OC)c1 [Compound 114, (2,4-Dimethoxy-phenyl)-(5-{2-[(pyridin-4-ylmethyl)-amino]-phenyl}-4H-[1,2,4]triazol-3-yl)-amine] | 24%
COc1ccc(Nc2nnc(-c3ccccc3NCc3ccncc3)[nH]2)cc1 [Compound 116, (4-Methoxy-phenyl)-(5-{2-[(pyridin-4-ylmethyl)-amino]-phenyl}-4H-[1,2,4]triazol-3-yl)-amine] | 20%
c1ccc(-c2nnc(Nc3ccc4c(c3)OCO4)[nH]2)c(NCc2ccc3[nH]cnc3c2)c1 [Compound 118, Benzo[1,3]dioxol-5-yl-(5-{2-[(1H-benzoimidazol-5-ylmethyl)-amino]-phenyl}-4H-[1,2,4]triazol-3-yl)-amine] | 41%
COc1cc(Nc2nnc(-c3ccccc3NCc3ccc(F)c(F)c3)[nH]2)cc(OC)c1 [Compound 120, {5-[2-(3,4-Difluoro-benzylamino)-phenyl]-4H-[1,2,4]triazol-3-yl}-(3,5-dimethoxy-phenyl)-amine] | 63%
